Patent US6379670B1, “Methods for treatment of multiple sclerosis using peptide analogs of human myelin basic protein” (Neurocrine Biosciences, Inc., priority 1994, dated 2002)
Where “and” joins values, the source holds several entries; their conditions need not be identical. Equal values may be shown once. Non-standard residues stand in square brackets, D forms with d. No end group written: not given here.

Assays:
[1] = test system: draining lymph node T cells of SJL mice; assay: Induction of Th2 response in SJL mice, ex vivo lymph node cell proliferation; parameters: species or system mouse
Method: SJL/J female mice (3 per group) were injected weekly on days 0, 7, 14 and 21 subcutaneously with 20 mg/kg of NBI-5788 in the flanks. On day 28, the mice were sacrificed, the draining lymph node removed, a single cell suspension was made and the ability of the cells to proliferate in response to 25 μM NBI-5788 was determined. The data, shown in FIG. 28, represent the mean of triplicate wells.

[2] = test system: peripheral blood cells of MS patients; assay: Frequency of APL-responsive peripheral blood T cells after dosing of MS patients (split-well); assay type: in vivo, human
Method: Patients received either 10 or 20 mg of APL NBI-5788 (weekly for four weeks). Peripheral blood cells were collected from four patients approximately one year after dosing, as well as from 14 MS patients who had not received the APL and from two normal, healthy volunteers. The frequency of response to the peptide was determined using the split-well technique. Cells were seeded in 48 wells/plate, as well as 12 control wells without antigenic stimulation, at a density of 1×10^5 cells/well. Cells were set up in IMDM+10% human plasma pool+penicillin/streptomycin 100 U/ml+gentamycin 50 μg/ml +2 mM L-glutamine (or complete media, CM). Peptide antigen (25 μg) was added and then included for no more than one feeding with media. At day 12, the medium was changed to CM without IL-2. Two days later, the split-wells were established. The wells were resuspended with a multichannel pipetor, 100 μl of the cell suspension was transferred to adjacent wells on a new plate (daughter plate) and mixed with 100 μl of media containing 1×10^5 antigen presenting cells (peripheral blood lymphocytes, PBL irradiated with 3000 R in CM with or without antigen; 25 μg/ml). After 48 hours of culturing, 100 μl of supernatant was removed from the daughter plate for later cytokine determination and stored at -70° C.
For the proliferation assay, ^3H-thymidine (0.5 μCi) was added to the daughter plate and the plates reincubated for an additional 8 hours. The wells were then harvested onto filter mats and the level of ^3H-thymidine incorporation determined using beta scintillation. Counts greater than three-fold over background were considered positive.

[3] = test system: Dr2b restricted human T cell clones reactive to MBP; assay: Human T cell proliferation, Dr2b restricted clones; assay type: cell-based
Method: Human T cells reactive to MBP (83-99) may alternatively be used to measure the ability of the peptide analog to inhibit proliferation of T cells induced by native MBP (83-99) peptide. MBP-specific T cells may be obtained as previously described by Martin et al., J. Immunol. 148:1359-1366, 1992. Briefly, T cell lines are established by culture of human T cells with irradiated, DR-matched peripheral blood cells in MEM supplemented with 2 mM L-glutamine, 50 μg/ml gentamicin, penicillin and streptomycin, 100 U/ml rIL-2, and 10% human AB negative serum. Proliferation of these T cell lines is stimulated by culturing a clone with varying concentration (1.1-30 μM) of native […] peptide, 50 μM of the peptide analog or SWM peptide, in the presence of irradiated, DR matched peripheral blood cells, following incubation for approximately 60 hours, the cells are pulsed with ^3H-thymidine for 12 hours and harvested. The amount of incorporated ^3H-thymidine is measured.
The ability of the peptide analogs NBI-5719, 5748, 5765, 5788 and 5789 (SEQ ID NOs: 4-8 respectively) to affect human T cell proliferation was assessed. A constant amount of peptide analog or the control peptide SWM (50 μM) was cultured with varying concentrations of native MBP(83-99) peptide (1.1-30 μM) in the presence of irradiated, DR matched peripheral blood cells and T cell clones derived from various MS patients. Human T cells (1×10^6) were cultured with DR matched, irradiated peripheral blood cells (PBL, 5×10^6) in medium containing IMDM supplemented with 3 μM MBP83-99, 2 mM L-glutamine, 50 μg/ml gentamicin penicillin/streptomycin, 100 U/ml r1L-2 and 10% human AB-negative serum. Cells were cultured for approximately 60 hours, pulsed with tritiated thymidine for 12 hours, and harvested. The amount of tritiated thymidine incorporated was measured, and the data represented as the mean plus or minus the standard error of the mean of replicate samples.
The ability of the peptide analog to inhibit the proliferative response of MBP-reactive T cells isolated from Dr2b (DrB1* 1501) individuals was determined. A constant amount of NBI-5788 (50 μM) was cultured with varying concentrations of native peptide (1.1-30 μM) in the presence of irradiated, DR matched peripheral blood cells and T cell clones derived from various MS patients.

EAE in Lewis rats = assay: Treatment of MBP(83-99)-induced EAE in Lewis rats with peptide analogs (subcutaneous); assay type: in vivo, Lewis rat
Method: In this system, experimental allergic encephalomyelitis (EAE) was induced in twelve female Lewis rats by injection of MBP(83-99) peptide in complete Freund's adjuvant (CFA) at the base of the tail. Nine days later, rats were divided into two groups of six animals and subcutaneously injected with 13.2 mg/kg of either peptide analog or a control peptide, sperm whale myoglobin (SWM) (110-121). Animals were monitored daily for disease symptoms and scored in a blinded fashion on a nonlinear ascending scale of 0-4 with increments denoting increasing paralysis. Each individual score was averaged with group cohorts to obtain the mean clinical score.

Question: Which results are given for “MBP(83-99) (83E>a, 84N>K, 89F>L, and 91K>A) ([dA]KPVVHLFANIVTPRTP) [NBI-5788]”?
Answer: immune response induced by repeated dosing ([1]; 20 mg/kg subcutaneously on days 0, 7, 14 and 21, ex vivo proliferation to 25 μM NBI-5788, FIG. 28): induces a Th2 response; response with successive weekly doses ([1]; four doses at weekly intervals): stronger response after each subsequent dose; Percent Reactivity (frequency of APL NBI-5788-reactive T cells) ([2]; 10 mg (n = 1)): 23%; frequency of APL responsive wells (SI>3), individual patient ([2]; 10 mg weekly for four weeks, about one year after dosing): 23%; Percent Reactivity (frequency of APL NBI-5788-reactive T cells) ([2]; 20 mg (n = 3)): 39 ± 18%; frequency of APL responsive wells (SI>3), individual patients ([2]; 20 mg weekly for four weeks, about one year after dosing, listed as APL): 11% and 32% and 72%; APL specific lines from treated patients cross reacting with native MBP (83-99) ([2]; human, in vivo): 6/31; APL specific lines from treated patients reacting with whole MBP ([2]; human, in vivo): 4/31; inhibition of response of Dr2b T cell clones to MBP peptide ([3]; 50 μM, three different T cell lines, FIGS. 16-18): inhibited the ability of the T cell clones to respond to MBP peptide in a concentration dependent fashion; inhibition of MBP-dependent proliferation of clone 5F6 ([3]; Dr2b restricted clone 5F6, 50 μM, FIG. 19): inhibited the MBP-dependent proliferation in a concentration dependent fashion; reduction of disease severity compared to the control group (EAE in Lewis rats; 13.2 mg/kg subcutaneously on day 9, FIG. 9): about 50%; effect on EAE disease severity versus control peptide (EAE in Lewis rats; 13.2 mg/kg subcutaneously on day 9, FIGS. 10 and 11): significantly reduced the severity and duration of the disease
